Data from ChEMBL document CHEMBL1155532 (Bioorg Med Chem Lett, 2010).
pIC50: −log10 of the molar value.

Assays:
[1] = molecular target: T1, Fatty acid-binding protein, adipocyte (Homo sapiens, UniProt P15090); assay: Displacement of 8-anilino-1-naphthalene-sulfonic acid from human His-FABP4 expressed in Escherichia coli BL21 (DE3) cells at 100 uM after 3 mins
Target sequence in this assay (P15090 2-132 limits assumed): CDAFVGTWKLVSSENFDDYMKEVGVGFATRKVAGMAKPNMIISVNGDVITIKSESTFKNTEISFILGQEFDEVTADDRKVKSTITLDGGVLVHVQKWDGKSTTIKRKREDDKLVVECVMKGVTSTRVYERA

[2] = molecular target: T1, Fatty acid-binding protein, adipocyte; assay: Displacement of 8-anilino-1-naphthalene-sulfonic acid from human His-FABP4 expressed in Escherichia coli BL21 (DE3) cells after 3 mins
Target sequence in this assay (P15090 whole entry): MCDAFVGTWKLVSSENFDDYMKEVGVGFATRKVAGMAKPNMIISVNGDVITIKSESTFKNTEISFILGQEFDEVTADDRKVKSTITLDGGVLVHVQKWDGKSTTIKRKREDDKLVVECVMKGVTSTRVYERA

[3] = molecular target: Fatty acid-binding protein, heart (Homo sapiens, UniProt P05413); assay: Displacement of 8-anilino-1-naphthalene-sulfonic acid from human His-FABP3 expressed in Escherichia coli BL21 (DE3) cells after 3 mins relative to linoleic acid
Homo sapiens [4] = organism: Homo sapiens; assay: Selectivity index, ratio of IC50 for His-human FABP3 to IC50 for human His-FABP4
[5] = molecular target: T1, Fatty acid-binding protein, adipocyte; assay: Displacement of 8-anilino-1-naphthalene-sulfonic acid from human His-FABP4 expressed in Escherichia coli BL21 (DE3) cells after 3 mins relative to linoleic acid
Target sequence in this assay (P15090 whole entry): as above

BL21-DE3 [6] = assay: Displacement of 8-anilino-1-naphthalene-sulfonic acid from human FABP4 F16A mutant expressed in Escherichia coli BL21 (DE3) cells at 500 uM after 3 mins
BL21-DE3 [7] = assay: Displacement of 8-anilino-1-naphthalene-sulfonic acid from human FABP4 F16A mutant expressed in Escherichia coli BL21 (DE3) cells at 700 uM after 3 mins
Homo sapiens [8] = organism: Homo sapiens; assay: Selectivity ratio of IC50 for human FABP4 F106A mutant to IC50 for human wild type FABP4
Homo sapiens [9] = organism: Homo sapiens; assay: Selectivity ratio of IC50 for human FABP4 F126A mutant to IC50 for human wild type FABP4
[10] = Displacement of 8-anilino-1-naphthalene-sulfonic acid from human FABP4 F16A mutant expressed in Escherichia coli BL21 (DE3) cells after 3 mins

Sequence of Fatty acid-binding protein, heart (P05413 whole entry): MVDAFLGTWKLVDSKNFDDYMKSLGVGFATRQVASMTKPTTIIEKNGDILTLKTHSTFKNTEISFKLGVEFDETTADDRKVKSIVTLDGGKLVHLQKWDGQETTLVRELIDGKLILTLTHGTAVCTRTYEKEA

SMILES | inhibition [1] [%] | pIC50 [2] | pIC50 [3] | Ratio IC50 (Homo sapiens [4]) | pIC50 [5] | inhibition (BL21-DE3 [6]) [%] | inhibition (BL21-DE3 [7]) [%] | Ratio IC50 (Homo sapiens [8]) | Ratio IC50 (Homo sapiens [9]) | pIC50 [10]
O=C(O)CSCC(=O)Nc1ccc(F)c(Cl)c1 | 56.2 | 4.23 | < 3.36 | > 99 | 5.36 |  |  |  |  | 
O=C(O)CSCC(=O)Nc1cc(Cl)cc(Cl)c1 | 84.9 | 4.87 | < 3.84 | > 144 | 6.00 | 50.7 | 57 | 1.3 | 11.1 | 
COc1ccc(-c2c(C(F)(F)F)nn(C)c2NC(=O)CSCC(=O)O)cc1 | 20.1 | < 4.00 |  |  |  |  |  |  |  | 
O=C(O)CSCC(=O)NCc1c(Cl)cccc1Oc1ccccc1 | 62.5 | 4.37 | 5.72 | 0.6 | 5.51 |  |  | 3.4 | 6.6 | 4.12
c1cc(CSc2nc3ccccc3[nH]2)nc(CSc2nc3ccccc3[nH]2)c1 | 47.7 | < 4.00 |  |  |  |  |  |  |  | 
Cc1ccc(SC(CC(=O)c2ccc(C)cc2)C(=O)O)cc1 (stereo not drawn) | 44.4 | < 4.00 |  |  |  |  |  |  |  | 
CCCCC/C=C\C/C=C\CCCCCCCC(=O)O | 81.4 |  |  |  |  | 36.9 | 39 |  |  | 
O=c1[nH]nc(SCCS(=O)(=O)c2ccc(Cl)cc2Cl)n1-c1ccc2c(c1)OCCO2 | 37.1 | < 4.00 |  |  |  |  |  |  |  | 
COC(=O)c1cc(OC)c(OC)cc1NC(=O)CSCC(=O)O | 46.9 | < 4.00 |  |  |  |  |  |  |  | 
CCCCCCCC/C=C\CCCCCCCC(=O)O | 66.8 |  |  |  |  |  |  |  |  | 
O=[N+]([O-])c1ccc(S(=O)(=O)c2ccccc2)cc1OS(=O)(=O)c1cc(Cl)cc(Cl)c1 | 40.7 | < 4.00 |  |  |  |  |  |  |  | 
O=C(O)CSCC(=O)NCc1ccccc1N1CCCCC1 | 58.7 | 4.25 | 5.20 | 1.5 | 5.39 |  |  |  |  | 
